Results: patent US20060002888A1, “Polyionenes for treating infections associated with cystic fibrosis” (Genzyme Corporation, priority 2002, published 2006)
Values after ≈ are worked out from the molar mass of the structure shown. Where two headings read alike, the source gives them in different places.

Key:
P. aeruginosa [1] = conditions: within 11 passages, published studies; cited from earlier work
MRSA = conditions: over 15 passages, published studies; cited from earlier work
[2] = tested on: A-549 lung epithelial cells; test: IC50 in A-549 lung epithelial cells; type: cell-based; conditions: Homo sapiens, A549
Experimental: (§1) Poly(trimethylene dipyridine-alt-5-oxanonane) having a molecular weight of 0.5 to 1 kDa was tested in A-549 lung epithelial cells to determine its IC50 value in comparison with tobramycin, a conventional antibiotic. In addition, the minimum inhibitory concentrations for the two compounds were determined in vitro for a number of bacterial strains and species. The results are as shown below, where all concentrations are expressed as μg/mL: […]

B. cepacia = test: Minimum inhibitory concentration in vitro (Example 26); type: cell-based; conditions: Burkholderia cepacia
Experimental: as §1

S. maltophilia = test: as above; type: cell-based; conditions: Stenotrophomonas maltophilia
Experimental: as §1

S. aureus = test: as above; type: cell-based; conditions: Staphylococcus aureus
Experimental: as §1

P. aeruginosa [3] = test: as above; type: cell-based; conditions: Pseudomonas aeruginosa
Experimental: as §1

Molecule	Rise of the MIC (P. aeruginosa [1]) [fold]	Rise of the MIC (MRSA) [fold]	IC50 [2] [µg/mL]	MIC (B. cepacia) [µg/mL]	MIC (S. maltophilia) [µg/mL]	MIC (S. aureus) [µg/mL]	MIC (P. aeruginosa [3]; strain G38, read-out: MIC P. aeruginosa G38) [µg/mL]	MIC (P. aeruginosa [3]; strain PA01, read-out: MIC P. aeruginosa PA01) [µg/mL]
gentamicin	190							
CCn1cc(C(=O)O)c(=O)c2cc(F)c(N3CCNCC3)cc21 [norfloxacin]	10	85						
NC[C@H]1O[C@H](O[C@H]2[C@H](O)[C@@H](O[C@H]3O[C@H](CO)[C@@H](O)[C@H](N)[C@H]3O)[C@H](N)C[C@@H]2N)[C@H](N)C[C@@H]1O [Tobramycin]			5000 (≈ 10700 µM)	> 50	25 (≈ 53.5 µM)	0.195 (≈ 0.417 µM)	0.39 (≈ 0.834 µM)	0.39 (≈ 0.834 µM)
